The values that follow are results of earlier work, collected in paper PMC7984856 (European journal of medicinal chemistry, 2021).

The test system of this data set is catalepsy in rats. The conditions noted are these: previous in vivo behavioral studies, ref [29].

For the molecule `Fc1ccc(CCCCN2CCN(c3ccccn3)CC2)cc1` [Compound 2, 1-(4-(4-fluorophenyl)butyl)-4-(pyridin-2-yl)piperazine], the “propensity to cause catalepsy” value is recorded as “low propensity to cause catalepsy”.
